Data: patent US12065445B2, “CDK2 inhibitors and methods of using the same” (Cedilla Therapeutics, Inc., priority 2021, dated 2024)

Key:
[1] = system: Kuramochi cells; test: BrdU Cell Proliferation Assay; format: cell-based; details: read-out: BrdU - KURAMOCHI.1: IC50
In short: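 Kuramochi cells were seeded at 2,000 cells/well, adhered overnight, then treated with a 10-point, 3-fold compound dilution series for 4 days. Proliferation was measured by a 1-hour BrdU pulse, anti-BrdU peroxidase colorimetric ELISA and 450 nm absorbance. Values were background-subtracted and normalized to DMSO wells.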

[2] = system: Kuramochi cells labeled with mApple-H2B; test: IncuCyte Cell Proliferation Assay; format: cell-based; details: 72 h
In short: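 Cells imaged at 0 and 72 h after compound treatment (10 points, ½ log dilution, 20 μM top), with fluorescent nuclei counted. Fold change in count was normalized to DMSO wells and fitted to dose-response curves to give GI50.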

Row | SMILES | IC50 [1] | IC50 [2]
1 | CNC(=O)[C@@H](NC(=O)[C@@H]1CN(C(=O)c2cncs2)CC12CN(CC1CCCC1)C2)[C@@H](C)OCC12CCC(CC1)OC2 [I-344, (S)—N-((2S,3R)-3-(2-oxabicyclo[2.2.2]octan-4-ylmethoxy)-1-(methylamino)-1-oxobutan-2-yl)-2-(cyclopentylmethyl)-6-(thiazole-5-carbonyl)-2,6-diazaspiro[3.4]octane-8-carboxamide] | > 10 µM | > 20 µM
2 | CNC(=O)[C@@H](NC(=O)[C@H]1CN(C(=O)c2sc(C)nc2C)CC12CN(C(=O)[C@H]1CC1(C)C)C2)[C@@H](C)OCC1CCCCC1 [I-213B] | > 10 µM | > 20 µM
3 | CC1(C)C[C@@H]1C(=O)N1CC2(CN(C(=O)c3cnn(Cc4ccccc4)c3)C[C@H]2C(=O)NC[C@H]2CC[C@H](C)CC2)C1 [I-382] | > 10 µM | > 20 µM
4 | CC(=O)N1C[C@@H](C(=O)N[C@H](C(=O)N2CCCCC2)[C@@H](C)OCC2CCCCC2)C2(C1)CN(C(=O)[C@H]1CC1(C)C)C2 [I-118] | > 10 µM | > 20 µM
5 | CC1(C)C[C@@H]1C(=O)N1CC2(CN(C(=O)c3cncs3)C[C@H]2C(=O)NC(c2cccc(C3CCCCC3)n2)C2COCCO2)C1 (stereo partly shown) [I-496] | > 10 µM | 5 to 20 µM
6 | C[C@@H](OCC1CCC(F)(F)CC1)[C@H](NC(=O)[C@@H]1CN(C(=O)c2cncs2)CC12CN(C(=O)[C@H]1CC1(C)C)C2)C(=O)N1CCC(C(F)(F)F)CC1 [I-398] | ≤ 0.5 µM | ≤ 0.5 µM
7 | CNC(=O)[C@@H](NC(=O)[C@H]1CN(C(=O)c2cnc(COC(C)(C)C)s2)CC12CN(C(=O)[C@H]1CC1(C)C)C2)[C@@H](C)OCC1CCCCC1 [I-175B] | > 10 µM | 5 to 20 µM
8 | CNC(=O)[C@@H](NC(=O)[C@@H]1CN(C(=O)c2cnn(Cc3ccccc3)c2)CC12CN(C(=O)[C@H]1CC1(C)C)C2)[C@@H](C)OCC1CCC(C)(C)CC1 [I-372] | ≤ 0.5 µM | ≤ 0.5 µM
9 | Cc1ccc(CNC(=O)[C@@H]2CN(C(=O)c3cncs3)CC23CN(C(=O)[C@H]2CC2(C)C)C3)nn1 [I-378] | > 10 µM | > 20 µM
10 | C[C@@H](OCC1CCC(F)(F)CC1)[C@H](NC(=O)[C@@H]1CN(C(=O)c2cncs2)CC12CN(C(=O)[C@H]1CC1(C)C)C2)C(=O)N1CCC2(CC1)CC2 [I-380] | ≤ 0.5 µM | ≤ 0.5 µM
11 | CC1(C)C[C@@H]1C(=O)N1CC2(CN(C(=O)c3cnn(Cc4ccccc4)c3)C[C@H]2C(=O)NCc2cccnn2)C1 [I-359] | > 10 µM | > 20 µM
12 | C[C@@H](OCC1(C(F)(F)F)CC1)[C@H](NC(=O)[C@@H]1CN(C(=O)c2cncs2)CC12CN(C(=O)[C@H]1CC1(C)C)C2)C(=O)N1CCC(F)(F)CC1 [I-287] | > 10 µM | 5 to 20 µM
13 | C[C@@H](OCC1CCCCC1)[C@@H](CO)NC(=O)[C@@H]1CN(C(=O)c2cncs2)CC12CN(C(=O)[C@H]1CC1(C)C)C2 [I-307] | 0.5 to 5 µM | 0.5 to 5 µM
14 | C[C@@H](OCC1CCCCC1)[C@H](NC(=O)C1CN(C(=O)c2cncs2)CC12CN(C(=O)[C@H]1CC1(C)C)C2)C(=O)N1CCC[C@@H](CO)C1 (stereo partly shown) [I-197] | 0.5 to 5 µM | ≤ 0.5 µM
15 | CNC(=O)[C@@H](NC(=O)[C@@H]1CN(C(=O)c2scnc2C(C)(C)C)CC12CN(C(=O)[C@H]1CC1(C)C)C2)[C@@H](C)OCC1CCCCC1 [I-231A] | > 10 µM | > 20 µM
16 | CNC(=O)[C@@H](NC(=O)[C@@H]1CN(C(=O)c2cnn(Cc3ccccc3)c2)CC12CN(C(=O)[C@H]1CC1(C)C)C2)[C@@H](C)OCCC1CCCCC1 [I-125A] | ≤ 0.5 µM | ≤ 0.5 µM

Row | SMILES | IC50 [1] | IC50 [2]
17 | CC1(C)C[C@@H]1C(=O)N1CC2(CN(C(=O)c3cnn(Cc4ccccc4)c3)C[C@H]2C(=O)NCc2ccc(C3CCCCC3)nn2)C1 [I-377] | > 10 µM | > 20 µM
18 | C[C@@H](OCC1CCCCC1)[C@H](NC(=O)[C@@H]1CN(C(=O)c2cncs2)CC12CN(C(=O)[C@H]1CC1(C)C)C2)C(=O)N1CCC(c2cnc[nH]2)CC1 [I-406] | 0.5 to 5 µM | 0.5 to 5 µM
19 | CNC(=O)[C@@H](NC(=O)[C@H]1CN(C(=O)c2cnn(Cc3ccccc3)c2)CC12CN(C(=O)[C@H]1CC1(C)C)C2)[C@@H](C)OCC1CCCC1 [I-110B] | 5 to 10 µM | 5 to 20 µM
20 | COC[C@H]1CCCN(C(=O)[C@@H](NC(=O)[C@@H]2CN(C(=O)c3cnn(Cc4ccccc4)c3)CC23CN(C(=O)[C@H]2CC2(C)C)C3)[C@@H](C)OC)C1 [I-283] | > 10 µM | > 20 µM
21 | COC[C@H]1CCCN(C(=O)[C@@H](NC(=O)[C@@H]2CN(C(=O)c3cncs3)CC23CN(C(=O)[C@H]2CC2(C)C)C3)[C@@H](C)OCC2CCCCC2)C1 [I-196A, (S)—N-((2S,3R)-3-(cyclohexylmethoxy)-1-((S)-3-(methoxymethyl)piperidin-1-yl)-1-oxobutan-2-yl)-2-((S)-2,2-dimethylcyclopropanecarbonyl)-6-(thiazole-5-carbonyl)-2,6-diazaspiro[3.4]octane-8-carboxamide] | ≤ 0.5 µM | ≤ 0.5 µM
22 | CNC(=O)[C@@H](NC(=O)[C@@H]1CN(C(=O)c2cncs2)CC12CN(C(=O)[C@H]1CC1(C)C)C2)[C@@H](C)OCC1CCCC2(CC2)C1 (stereo partly shown) [I-370] | ≤ 0.5 µM | ≤ 0.5 µM
23 | C[C@@H](OCC1CCOCC1)[C@H](NC(=O)[C@@H]1CN(C(=O)c2cncs2)CC12CN(C(=O)C(C)(C)C1CC1)C2)C(C)(C)O [I-341] | > 10 µM | > 20 µM
24 | C[C@@H](OCC1CCCCC1)[C@H](NC(=O)C1CN(C(=O)c2cnn(Cc3ccccc3)c2)CC12CN(C(=O)[C@H]1CC1(C)C)C2)C(=O)N1CC2(CCC2)C1 (stereo partly shown) [I-107] | ≤ 0.5 µM | ≤ 0.5 µM
25 | C[C@@H](OCC1CCCCC1)[C@H](NC(=O)C1CN(C(=O)c2cnn(Cc3ccccc3)c2)CC12CN(C(=O)[C@H]1CC1(C)C)C2)C(=O)N1CCCCC1 (stereo partly shown) [I-194 mixture] | ≤ 0.5 µM | ≤ 0.5 µM
26 | C[C@@H](OCc1ccccc1)[C@H](NC(=O)[C@@H]1CN(C(=O)c2cnn(Cc3ccccc3)c2)CC12CN(C(=O)[C@H]1CC1(C)C)C2)C(=O)N1CCC(F)(F)CC1 [I-280] | 0.5 to 5 µM | 0.5 to 5 µM
27 | CNC(=O)[C@H](CO)NC(=O)C1CN(C(=O)c2cnn(Cc3ccccc3)c2)CC12CN(C(=O)[C@H]1CC1(C)C)C2 (stereo partly shown) [I-260] | > 10 µM | > 20 µM
28 | COC[C@H]1CCCN(C(=O)[C@@H](NC(=O)[C@@H]2CN(C(=O)c3cncs3)CC23CN(C(=O)[C@H]2CC2(C)C)C3)[C@@H](C)OCc2ccc(Cl)cc2F)C1 [I-317] | 0.5 to 5 µM | 0.5 to 5 µM
29 | CNC(=O)[C@@H](NC(=O)[C@@H]1CN(C(=O)c2cnn(Cc3ccccc3)c2)CC12CN(C(=O)C(C)(C)C)C2)[C@@H](C)OCC1CCCCC1 [I-174A] | 0.5 to 5 µM | 0.5 to 5 µM
30 | C[C@@H](OCC1CCCCC1)[C@H](NC(=O)[C@@H]1CN(C(=O)c2cnn(Cc3ccccc3)c2)CC12CN(C(=O)[C@H]1CC1(C)C)C2)C(=O)N1CC[C@@H]1CN [I-270] | > 10 µM | 5 to 20 µM
31 | CNC(=O)[C@@H](NC(=O)[C@@H]1CN(C(=O)c2cnn(Cc3ccc(F)cc3)c2)CC12CN(C(=O)[C@H]1CC1(C)C)C2)[C@@H](C)OCc1ccc(F)cc1 [I-136A] | 0.5 to 5 µM | 5 to 20 µM
32 | CNC(=O)[C@@H](NC(=O)[C@@H]1CN(C(=O)c2sc(C)nc2C)CC12CN(C(=O)[C@H]1CC1(C)C)C2)[C@@H](C)OCC1CCCCC1 [I-213A] | 0.5 to 5 µM | 0.5 to 5 µM
